{"source": "patent US9034583B2", "about": "“Rapid enzyme-linked immunosorbent assay for detection and identification of pathogens and determination of antimicrobial susceptibility” (priority 2013, dated 2015)", "key": {"[1]": {"system": "N. gonorrheae (Ceftriaxone Resistant)", "assay": "N-Assay antibiotic susceptibility, N. gonorrheae with Ceftriaxone (Example 6)", "type": "cell-based, Neisseria gonorrheae", "conditions": "With Ceftriaxone Present, 2 μg/ml", "experimental": "(§1) Prior to performing the N-Assay, bacterial cultures were prepared as follows in order to establish the sensitivity of the assay. An inoculum was taken from a stock culture, and plated onto solid phase nutrient agar and incubated overnight at 37° C. E. faecalis, E. faecium (Vancomycin-Resistant Enterococcus, or VRE) and GBS isolates were plated onto colistin and naladixic acid agar, and N. gonorrheae was plated onto chocolate agar. The gonorrheal culture was performed in a CO2 incubator. Following an overnight culture, an isolated colony was selected of each bacterial species, and the isolated colonies were sub-cultured on solid phase for an additional 24 hours to ensure adequate viability was maintained. Following this, isolated cultures were used to inoculate nutrient broth (LIM broth was used for GBS, Fastidious broth with isovitalex 2% v/v for N. gonorrheae, and BHI broth was used for E. faecalis, E. faecium). A 0.5 McFarland was prepared for each bacterial species, and these were then diluted serially down to 10^−3 in nutrient broth and the OD630 immediately was determined. For each dilution, aliquots were obtained and agar plates were inoculated. The agar plates then were incubated at 37° C. for 24 hours, and the number of colony forming units (CFU) was determined for each bacterial species at each dilution. This was used to generate a standard curve, so that future dilutions when prepared could be developed with known concentrations of bacteria. […] A similar curve was generated for each bacteria studied.\n(§2) Antibodies against selected bacteria were diluted 1:100 in coating buffer (carbonate bicarbonate buffer), and 100 μl were placed in microtiter wells and allowed to stand overnight at 4° C. The following day, wells were washed with PBS TWEEN 20 three times, and then blocked with 200 μl of STARTINGBLOCK for 30 minutes at room temperature. Following blocking, wells were washed three times with PBS TWEEN 20, and plates were either stored at 4° C. with a sterile cover placed over them for later use, or used immediately.\n(§3) To determine antibiotic susceptibility of the four strains of bacteria, a 0.5 Mcfarland was prepared in nutrient broth and serially dilutions were established. The dilutions were incubated overnight for 18-24 hours at 37° C. (in a CO2 incubator for N. gonorrheae) with specific antibiotics. Parallel dilutions were prepared of each bacterium, in the presence and absence of specific antibiotics, as follows: (1) for E. faecalis, E. faecium, Penicillin G was added in varying concentrations, and as these concentrations were held constant, the bacterial concentration was diluted out; (2) the same parameters were set for GBS with the antibiotic clindamycin; and (3) the same parameters were set for N. gonorrheae with the antibiotic ceftriaxone.\n(§4) Following overnight incubation in the presence or absence of the selected antibiotics, 100 μl of the bacterial suspensions were placed into previously coated wells, and plates were allowed to stand at room temperature for 15 minutes. After washing with PBS TWEEN 20 three times, 100 μl of HRP-conjugated antibody directed against the specific bacteria was added in a 1:100 dilution, and allowed to stand at room temperature for 7 minutes. Wells were washed three times with PBS TWEEN 20, and bound antibody was detected by the addition of 100 μl of TMB substrate. OD450) was read after allowing the plate to stand for 3 minutes at room temperature and stopping the reaction with stop solution (KPL).\n(§5) After adding stop solution, wells were read at OD450. […] Alternatively, wells were determined to be positive if they turned yellow after addition of the stop solution, if a plate reader was not available.\n(§6) These studies were repeated for E. faecalis, E. faecium and N. gonorrheae. For E. faecalis and E. faecium, Penicillin G was used to distinguish between E. faecalis and E. faecium, as E. faecium is resistant to Penicillin G. For N. gonorrheae, the antibiotic used was ceftriaxone."}, "[2]": {"system": "N. gonorrheae (Ceftriaxone Sensitive)", "assay": "N-Assay antibiotic susceptibility, N. gonorrheae with Ceftriaxone (Example 6)", "type": "cell-based, Neisseria gonorrheae", "conditions": "summary of Table 3", "experimental": "as §1, §2, §3, §4, §5, §6"}, "[3]": {"system": "Clindamycin Resistant Strain (GBS 11276)", "assay": "N-Assay antibiotic susceptibility, GBS with Clindamycin (Example 6)", "type": "cell-based, Group B Streptococcus (GBS)", "conditions": "for Detection of GBS: With Clindamycin Present, 4 μg/ml, 18 hour incubation in nutrient broth, resistant strain GBS 11276", "experimental": "as §1, §2, §3\nas §4, with “After washing with PBS TWEEN 20 three times, 100 μl of HRP-conjugated antibody directed against the specific bacteria was added in a 1:100 dilution, and allowed to stand at room temperature for 7 minutes.” left out\nAfter adding stop solution, wells were read at OD450. […] Alternatively, wells were determined to be positive if they turned yellow after addition of the stop solution, if a plate reader was not available. […]"}, "[4]": {"system": "penicillin-sensitive (Pen-S) Strain 1279", "assay": "Simultaneous identification of N. gonorrheae and antimicrobial susceptibility (Example 4)", "type": "cell-based", "conditions": "penicillin 0.5, 1.0, 2.0 μg/ml, 10^8 bacteria", "experimental": "(§7) Two strains of N. gonorrheae, penicillin-sensitive (Pen-S) Strain 1279 and penicillin-resistant (Pen-R) Strain 31426, were cultured overnight on Gc agar. A 0.5 McFarland was prepared immediately before wells were to be inoculated, and the two strains were each diluted to a concentration of 10^8 in FB. The bacteria-containing FB for each strain was split into four tubes, in which a different concentration of penicillin was added to each of the tubes of the two strains: 2.0 μg/ml, 1.0 μg/ml, 0.5 μg/ml, and buffer alone as a negative control. Microtiter wells were coated with 100 μl of a 1:200 dilution of rabbit polyclonal antibody directed against N. gonorrheae, and allowed to stand at 4 degrees Celsius overnight. […] Following blocking, wells were again washed three times with PBS. At this stage, the plates were either used immediately, or stored at 4 degrees Celsius for later use. Upon proceeding with the assay, 100 μl of the 10^8 dilution of the two strains of N. gonorrheae were placed in individual wells. The wells were shaken gently on a plate stirrer at room temperature for 15 minutes. Next, wells were washed three times with PBS, and 100 μl of an HRP-conjugated rabbit polyclonal antibody (1:50 dilution in PBS) directed against N. gonorrheae was added to the wells and incubated at room temperature for 5 minutes. Wells were washed three times with PBS, and then bound antibody was detected by the addition of 100 μl of TMB substrate. OD450) was read after allowing the plate to stand for three minutes at room temperature and stopping the reaction with stop solution (KPL). Negative controls consisted of the same preceding steps, but the addition of bacteria was omitted."}, "[5]": {"system": "penicillin-resistant (Pen-R) Strain 31426", "assay": "Simultaneous identification of N. gonorrheae and antimicrobial susceptibility (Example 4)", "type": "cell-based", "experimental": "as §7"}, "[6]": {"system": "Enterococcus faecalis (Penicillin Sensitive)", "assay": "N-Assay antibiotic susceptibility, Enterococcus with Penicillin G (Example 6)", "type": "cell-based", "conditions": "for Detection of Enterococcus faecalis: With Penicillin Present, 8 μg/ml Penicillin G, 18 hour incubation in nutrient broth", "experimental": "as §1, §2, §3, §4, §5, §6"}, "[7]": {"system": "Enterococcus faecium (Penicillin Resistant, i.e., VRE)", "assay": "N-Assay antibiotic susceptibility, Enterococcus with Penicillin G (Example 6)", "type": "cell-based", "conditions": "for Detection of Enterococcus faecium: With Penicillin Present, 8 μg/ml Penicillin G, 18 hour incubation in nutrient broth", "experimental": "as §1, §2, §3, §4, §5, §6"}}}
{"smiles": "CO/N=C(\\C(=O)N[C@@H]1C(=O)N2C(C(=O)O)=C(CSc3nc(=O)c(=O)[nH]n3C)CS[C@H]12)c1csc(N)n1", "note": "[Ceftriaxone, ceftriaxone]", "values": [{"measurement": "Detection of Neisseria gonorrheae", "setting": "[1]; 18 hour incubation in nutrient broth, 0.1 CFU/ml", "value": "+"}, {"measurement": "Detection of Neisseria gonorrheae", "setting": "[1]; 18 hour incubation in nutrient broth, 1 CFU/ml", "value": "+"}, {"measurement": "Detection of Neisseria gonorrheae", "setting": "[1]; 18 hour incubation in nutrient broth, 10 CFU/ml", "value": "+"}, {"measurement": "Detection of Neisseria gonorrheae", "setting": "[1]; 18 hour incubation in nutrient broth, 100 CFU/ml", "value": "+"}, {"measurement": "Detection of Neisseria gonorrheae", "setting": "[1]; 18 hour incubation in nutrient broth, 1,000 CFU/ml", "value": "+"}, {"measurement": "Detection of Neisseria gonorrheae", "setting": "[1]; 18 hour incubation in nutrient broth, 10,000 CFU/ml", "value": "+"}, {"measurement": "N-Assay result of wells containing N. gonorrheae", "setting": "[2]", "value": "negative"}]}
{"smiles": "CCC[C@@H]1C[C@@H](C(=O)N[C@@H]([C@H]2O[C@H](SC)[C@H](O)[C@@H](O)[C@H]2O)[C@H](C)Cl)N(C)C1", "note": "[Clindamycin, clindamycin]", "values": [{"measurement": "Detection of GBS", "setting": "[3]; 10 CFU/ml", "value": "+"}, {"measurement": "Detection of GBS", "setting": "[3]; 100 CFU/ml", "value": "+"}, {"measurement": "Detection of GBS", "setting": "[3]; 1,000 CFU/ml", "value": "+"}, {"measurement": "Detection of GBS", "setting": "[3]; 10,000 CFU/ml", "value": "+"}, {"measurement": "lowest dilution at which GBS resistant to Clindamycin was positive", "setting": "[3]; summary of Table 1, incubated 24 hours at 37° C. with Clindamycin", "value": 100, "unit": "bacteria/ml"}]}
{"smiles": "CC1(C)S[C@@H]2[C@H](NC(=O)Cc3ccccc3)C(=O)N2[C@H]1C(=O)O", "note": "[Penicillin G, penicillin G]", "values": [{"measurement": "OD450 signal of bound N. gonorrheae with increasing concentrations of penicillin", "setting": "[4]", "value": "progressively decreasing positive signal"}, {"measurement": "OD450 signal of bound N. gonorrheae between concentrations of penicillin", "setting": "[5]; penicillin 0.5, 1.0, 2.0 μg/ml, 10^8 bacteria, Pen-R Strain 31426", "value": "did not significantly vary"}, {"measurement": "growth by turbidity at OD600", "setting": "[5]; wells containing Pen-R strain 31426 with penicillin", "value": "increasing turbidity"}, {"measurement": "N-Assay result of wells containing E. faecalis", "setting": "[6]; Table 2, with Penicillin G", "value": "negative"}, {"measurement": "Detection of Enterococcus faecalis", "setting": "[6]; 100,000 CFU/ml", "value": "+"}, {"measurement": "Detection of Enterococcus faecalis", "setting": "[6]; 1,000,000 CFU/ml", "value": "+"}, {"measurement": "Detection of Enterococcus faecalis", "setting": "[6]; 10,000,000 CFU/ml", "value": "+"}, {"measurement": "lowest dilution at which E. faecium was positive", "setting": "[7]; Table 2, with Penicillin G", "value": 100, "unit": "bacteria/ml"}, {"measurement": "Detection of Enterococcus faecium", "setting": "[7]; 1 CFU/ml", "value": "+"}, {"measurement": "Detection of Enterococcus faecium", "setting": "[7]; 10 CFU/ml", "value": "+"}, {"measurement": "Detection of Enterococcus faecium", "setting": "[7]; 100 CFU/ml", "value": "+"}, {"measurement": "Detection of Enterococcus faecium", "setting": "[7]; 1,000 CFU/ml", "value": "+"}, {"measurement": "Detection of Enterococcus faecium", "setting": "[7]; 10,000 CFU/ml", "value": "+"}, {"measurement": "Detection of Enterococcus faecium", "setting": "[7]; 100,000 CFU/ml", "value": "+"}, {"measurement": "Detection of Enterococcus faecium", "setting": "[7]; 1,000,000 CFU/ml", "value": "+"}, {"measurement": "Detection of Enterococcus faecium", "setting": "[7]; 10,000,000 CFU/ml", "value": "+"}]}
